The results in this text go back to US9000027B2, “Chk1 suppresses a caspase-2 apoptotic response to DNA damage that bypasses p53, bcl-2 and caspase-3” (Dana-Farber Cancer Institute, Inc., priority 2008, dated 2015).

Series [1] concerns p53^e7/e7;chk1^MO cells grafted into p53^e7/e7 hosts. The experiment in a line: Blastula-cell transplantation (genetic chimeras), TUNEL after IR. Format: in vivo, zebrafish. As to conditions: 12.5 Gy, n=102. From the text:
To determine whether the Chk1-antagonized pathway functions cell autonomously or non-cell autonomously, we generated genetic chimeras (see cell transplantation procedure in FIG. 3D and assay validation in FIG. 14). While p53^e7/e7;chk1^MO cells grafted into p53^e7/e7 hosts often stained TUNEL-positive after IR (39%, n=102), neighboring host cells were virtually never seen that stained TUNEL-positive (FIG. 3E, upper panels). In the reciprocal experiment, p53^e7/e7 cells transplanted into p53^e7/e7;chk1^MO hosts remained TUNEL-negative within an otherwise TUNEL-positive environment (FIG. 3E, lower panels). Therefore, IR-induced TUNEL reactivity of transplanted cells strictly depends on Chk1 dosage, occurs irrespective of the cellular environment, and has very little, if any, influence on neighboring cells. The Chk1-suppressed apoptotic pathway thus functions in a cell-autonomous manner.
Zebrafish embryos were fixed in 4% paraformaldehyde (PFA) overnight at 4° C. and subsequently stored in methanol at −20° C. for at least 2 hr. After rehydration at room temperature in PBST (1×PBS, 0.1% Tween-20), embryos were treated with proteinase K (10 μg/mL) in PBS for 15 min, followed by a 20-min postfix in 4% PFA at room temperature. […] Tagged DNA was detected with sheep anti-digoxigenin-fluorescein or sheep anti-digoxigenin-rhodamine conjugated Fab fragments. […]

A further series has as its system human cancer cell lines. As to the kind of experiment: Annexin V (+)/PI (-) apoptosis assay in human cancer cell lines. In kind it is cell-based. The procedure:
For the Annexin V assay, 2.0×10^5 cells treated with IR (0 or 10 Gy) and/or Gö6976 (0 or 1 μM) for 48 h were washed with cold-PBS and resuspended in staining buffer containing propidium iodide (PI) and fluorescein isothiocynate (FITC)-conjugated anti-AnnexinV antibody (MEBCYTO apoptosis kit, MBL international, MA). After 30 min incubation at room temperature, cells were analyzed by flow cytometry (FACScaliber, BD Bioscience, San Jose, Calif.) and CellQuest analysis program (BD Bioscience). The cells in PI-negative and AnnexinV-positive fraction were evaluated as apoptosis. Data were collected from two independent experiments in which each condition (shRNA, presence or absence of Gö6976) was analyzed in triplicate.

The target in another series is T1, Chk1 (Homo sapiens, UniProt O14757).
T1 sequence (O14757 1-476): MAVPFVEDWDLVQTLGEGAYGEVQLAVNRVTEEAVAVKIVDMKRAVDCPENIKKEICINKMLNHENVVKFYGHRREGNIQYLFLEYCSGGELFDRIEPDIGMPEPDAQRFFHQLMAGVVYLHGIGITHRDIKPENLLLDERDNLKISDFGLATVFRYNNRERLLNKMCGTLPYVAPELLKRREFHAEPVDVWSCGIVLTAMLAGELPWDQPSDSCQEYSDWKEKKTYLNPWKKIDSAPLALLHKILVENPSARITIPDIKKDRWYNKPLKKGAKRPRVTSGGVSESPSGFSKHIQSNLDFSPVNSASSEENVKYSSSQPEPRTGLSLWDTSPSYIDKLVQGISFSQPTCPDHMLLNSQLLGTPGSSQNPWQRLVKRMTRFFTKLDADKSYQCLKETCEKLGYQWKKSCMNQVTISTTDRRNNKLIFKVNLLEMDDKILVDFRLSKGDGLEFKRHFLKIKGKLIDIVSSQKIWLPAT
As to the kind of experiment: Western blot of Chk1 activity (Cdc2 Tyr15 and CDC25C Ser216 phosphorylation) in irradiated HeLa cells. In kind it is cell-based. Set-up: endogenous in cells; host or cells: HeLa. As to conditions: 10 Gy. The procedure: Protein extract (5-60 μg) was added to 4× gel loading buffer and 10× denaturing solution (Invitrogen) in appropriate proportions, and samples were incubated at 70° C. for 10 min. Samples were run at 200V for 1 hr on a 4-12% Bis-tris gradient gel (Invitrogen). After electrophoresis, samples were transferred for 1.5 hr (350 mA) to a Nitrocellulose membrane (Millipore) using a submerged transfer apparatus (Bio-Rad). Membranes were then blocked with 5% milk in Tris-buffered saline with 0.1% tween (TBST) and probed overnight at 4° C. with the following antibodies: anti-zebrafish Chk1 (diluted 1:200), anti-zebrafish Chk2 (1:200), anti-P-Cdc2 (1:1000), anti-actin (1:2000), anti-human ATR (1:500) and Stressgen anti-human-caspase-3 (1:500) for zebrafish immunoblots; and anti-caspase-2 (1:200), Upstate anti-caspase-3 (1:500), anti-P-ATM (1:500), anti-ATM (1:500), Santa Cruz anti-human Chk1 (1:1000), Santa Cruz anti-human Chk2 (1:1000), anti-P-Chk1 (1:500), anti-P-Chk2 (1:500), anti-P-H2A.X (1:2000), anti-P-cdc25C (1:1000), anti-P-HSP27 (1:1000), anti-HSP27 (1:1000), anti-P-Cdc2 (1:1000), anti-p53 (1:1000) and anti-GAPDH (1:5000) for immunoblots of human tumor cell lysates. Detailed references for all primary antibodies can be found in the ‘Antibodies’ section elsewhere herein.
(In general: In western blotting, separated proteins are transferred to a membrane and probed.)

As to “chk1 MO: morpholino against zebrafish chk1 atg/5'UTR, aggcacagccattatgcaatcttcg (SEQ ID NO: 11) (AGGCACAGCCATTATGCAATCTTCG; all phosphorodiamidate morpholino (PMO))”, the “grafted cells staining TUNEL-positive after IR” value in series [1] is 39%.

With `Cn1c2ccccc2c2c3c(c4c5ccccc5n(CCC#N)c4c21)CNC3=O` [Gö6976], the apoptosis entry in the series with human cancer cell lines (TP53+/+ HCT116 cells, IR+Gö6976) was “moderate, yet significant increase in apoptosis”. Further, the “apoptosis versus single- or no-treatment controls” value in the series with human cancer cell lines (TP53 null or mutant lines, 10 Gy IR+Gö6976, 48 hpIR) is “increases in caspase-2 cleavage and apoptosis”. Besides, the Chk1 inhibition entry at Chk1 (1 μM) was “potent Chk1 inhibition”. Besides, the “phosphorylation of Chk1 readouts CDC2 and CDC25C” value at Chk1 (increasing concentrations, 24 hpIR) is “inhibited the phosphorylation of CDC2 and CDC25C”.
